Test results published in patent US7470715B2, “Estrogen modulators” (Pfizer Inc., priority 2005, dated 2008).
pEC50: −log10 of the molar value. Several values for one entry are separate records, joined by “and”; a condition that tells them apart may be missing. Equal values may be shown once.

How the values were obtained:
[1] = tested on: hairless female SKH, 1-hr mice; experiment: Animal model for reversal of wrinkles: skin thickness model, topical dosing, skin thickness and hyaluronic acid; assay type: in vivo, mouse; conditions: three days
Description: Animal Model for Reversal of Wrinkles
Uzuka et al. describes an increase in mouse back skin water content, hyaluronic acid (HA) content, and hyaluronic acid synthetase activity following topical application or subcutaneous injection of estradiol (Biochimica et Biophysica Acta, 627, 199-206, 1980; Biochimica et Biophysica Acta 673, 387-393, 1981). […] Thus, this model may be used to as a preliminary screen to assess the potential for estrogen modulators to alleviate wrinkles in human skin.
The skin thickness model uses hairless female SKH, 1-hr mice. Mice aged to approximately 11 weeks are introduced into the laboratory environment and acclimated for at least 1 week prior to use in the study may be used. Each group typically consisted of 7 animals that may be run in parallel with vehicle and the positive control estradiol. Based on binding and/or cellular assay data, compounds are chosen for screening in this model. Those compounds include the products of Examples, 2, 9, 15, 46, 47, 48, 51, 52, 61, 135, and 137. Prior to topical application to mouse dorsal skin, a sufficient quantity of each compound is dissolved in a solvent generally consisting of ethanol and propylene glycol (70/30% v/v) (vehicle) to achieve the final concentration specified in Table C below. Animals are dosed topically QD or BID, for three days. Each dose consisted of 100 microliters of vehicle or drug applied uniformly to the entire dorsal surface (˜18 cm^2). All animals are sacrificed approximately 18-24 hours after the final dose. Skin thickness (ST) is measured using a caliper. HA is extracted from the skin and quantitated using commercially-available enzyme-linked immunosorbent assays (ELISAs)(HA).
Data are presented as percent of the estradiol response after subtracting out the ST for vehicle-treated mouse skin. The estradiol response is set to 100% and the vehicle resoibse becines 0%.

[2] = biological target: T1, ligand binding domain of the estrogen receptor alpha chain (ERαLBD) (Homo sapiens, UniProt P03372); experiment: ER agonist cell assay (ERα), Huh-7 co-transfection, luciferase; assay type: cell-based; conditions: for pEC50: Huh-7 cells co-transfected with pG5luc and ERαLBD, overnight incubation, luciferase; for ERα % of Max E2 Response: percent of the maximum estradiol fold change, Huh-7, pG5luc and ERαLBD
T1 construct: expressed in transfected cells; host or cells: Huh-7 human hepatoma cells, transient transfection with FuGENE 6
T1 sequence (P03372 311-547 limits assumed): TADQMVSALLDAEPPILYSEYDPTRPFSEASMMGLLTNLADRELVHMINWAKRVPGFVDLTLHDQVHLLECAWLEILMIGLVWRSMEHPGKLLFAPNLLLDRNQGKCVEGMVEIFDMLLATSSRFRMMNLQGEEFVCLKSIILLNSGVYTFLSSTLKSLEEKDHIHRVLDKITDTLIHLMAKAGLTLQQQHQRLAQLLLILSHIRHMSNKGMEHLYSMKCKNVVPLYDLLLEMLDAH

[3] = biological target: ligand binding domain of the estrogen receptor beta chain (ERβLBD) that contained a point mutation at amino acid residue 418 (pm418) (Homo sapiens, UniProt Q92731); experiment: ER agonist cell assay (ERβ), Huh-7 co-transfection, luciferase; assay type: cell-based; conditions: for pEC50: Huh-7 cells co-transfected with pG5luc and ERβLBD(pm418), overnight incubation, luciferase; for ERβ % of Max E2 Response: percent of the maximum estradiol fold change, Huh-7, pG5luc and ERβLBD(pm418)
[4] = 1% topical, BID, vehicle 0%, estradiol 100%

Structure (SMILES) | ST (skin thickness), percent of the estradiol response [1, 4] | pEC50 [2] | ERα % of Max E2 Response [2] [%] | pEC50 [3] | ERβ % of Max E2 Response [3] [%] | melting point [°C] | HA (hyaluronic acid), percent of the estradiol response ([1]; 1% topical, QD) | ST (skin thickness), percent of the estradiol response ([1]; 1% topical, QD) | HA (hyaluronic acid), percent of the estradiol response ([1]; 0.5% topical, BID) | ST (skin thickness), percent of the estradiol response ([1]; 0.5% topical, BID) | further results
CCC(O)C1(c2onc(-c3ccc(O)cc3)c2-c2ccccc2)CC1 (racemic) [Example 47, (±)-4-{5-[1-(1-Hydroxy-propyl)-cyclopropyl]-4-phenyl-isoxazol-3-yl}-phenol] | 53% | 7.65 | 92 | 6.84 | 87.4 | 175 to 176 |  |  |  |  | HA (hyaluronic acid), percent of the estradiol response [1, 4]: 59%
OCC1(c2onc(-c3ccc(O)cc3)c2-c2ccccc2)CC1 [Example 2, 4-[5-(1-Hydroxymethyl-cyclopropyl)-4-phenyl-isoxazol-3-yl]-phenol] |  |  |  |  |  | 210 to 211 | 15% | 19% |  |  | 
C[C@@H](O)C1(c2onc(-c3ccc(O)cc3)c2-c2ccccc2)CC1 [Example 46, (R)-(−)-4-{5-[1-(1-Hydroxy-ethyl)-cyclopropyl]-4-phenyl-isoxazol-3-yl}-phenol] |  | 7.48 | 106 | 7.36 | 99.7 | 219 to 221 | 48% | 36% | 39% and 68% and 76% | 53% and 71% and 73% | HA (hyaluronic acid), percent of the estradiol response ([1]; 0.015% topical, BID): 11%; ST (skin thickness), percent of the estradiol response ([1]; 0.015% topical, BID): 20%; HA (hyaluronic acid), percent of the estradiol response ([1]; 0.05% topical, BID): 52%; ST (skin thickness), percent of the estradiol response ([1]; 0.05% topical, BID): 47%; HA (hyaluronic acid), percent of the estradiol response ([1]; 0.15% topical, BID): 55%; ST (skin thickness), percent of the estradiol response ([1]; 0.15% topical, BID): 65%
CC[C@@H](O)C1(c2onc(-c3ccc(O)cc3)c2-c2ccccc2)CC1 [Example 48, (R)-(−)-4-{5-[1-(1-Hydroxy-propyl)-cyclopropyl]-4-phenyl-isoxazol-3-yl}-phenol] | 72% and 89% | 7.50 | 88.8 | 7.07 | 71.8 | 163 to 164 | 47% and 42% | 64% and 41% | 84% | 78% | HA (hyaluronic acid), percent of the estradiol response ([1]; 0.03% topical, BID): 26%; ST (skin thickness), percent of the estradiol response ([1]; 0.03% topical, BID): 33%; HA (hyaluronic acid), percent of the estradiol response ([1]; 0.03% topical, QD): 18%; ST (skin thickness), percent of the estradiol response ([1]; 0.03% topical, QD): 13%; HA (hyaluronic acid), percent of the estradiol response ([1]; 0.1% topical, BID): 63%; ST (skin thickness), percent of the estradiol response ([1]; 0.1% topical, BID): 58%; HA (hyaluronic acid), percent of the estradiol response ([1]; 0.1% topical, QD): 32%; ST (skin thickness), percent of the estradiol response ([1]; 0.1% topical, QD): 29%; HA (hyaluronic acid), percent of the estradiol response ([1]; 0.3% topical, BID): 96%; ST (skin thickness), percent of the estradiol response ([1]; 0.3% topical, BID): 80%; HA (hyaluronic acid), percent of the estradiol response ([1]; 0.3% topical, QD): 41%; ST (skin thickness), percent of the estradiol response ([1]; 0.3% topical, QD): 57%
